Reference: US20150141336A1, “Pancreatic Peptide Compounds and Use” (Novo Nordisk A/S, priority 2012, published 2015)
Numbered stars: 1 amine (or outer) side, 2 acyl side, 3 side chain; on linkers, the order of the positions; unused ones are H or OH. Side chains are listed from the residue outwards. Peptide text beside a SMILES is read from it. * marks the point of attachment. C18 diacid = O=C(O)CCCCCCCCCCCCCCCCC(=O)*; γGlu = O=C(O)[C@H](CCC(=O)[*:2])N[*:1]; AEEA = NCCOCCOCC(=O)O

test: Assay (II) PK i.v. minipig, in vivo half-life; set-up: species or system Göttingen mini-pigs; conditions: male, Göttingen, minipig, iv, Half-life minipig, Assay (II)
Method in brief: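 Plasma levels after a single 6 nmol/kg intravenous dose in five male Göttingen mini-pigs were measured by TFC/LC/MS/MS against spiked-plasma calibration, sampling to 240 h. Vehicle: 50 mM K2HPO4, 0.05% tween 80, pH 8.0. Individual profiles analysed non-compartmentally for half-life.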

SMILES | half-life [h]
CC[C@H](C)[C@H](NC(=O)[C@H](Cc1ccc(O)cc1)NC(=O)[C@H](CCCNC(=N)N)NC(=O)[C@H](CCCNC(=N)N)NC(=O)[C@H](CC(C)C)NC(=O)[C@H](CC(=O)O)NC(=O)[C@H](C)NC(=O)[C@H](C)NC(=O)[C@H](Cc1ccc(O)cc1)NC(=O)[C@H](CCC(N)=O)NC(=O)[C@H](C)NC(=O)[C@H](CCSC)NC(=O)[C@H](CCC(N)=O)NC(=O)[C@H](CCC(=O)O)NC(=O)[C@@H]1CCCN1C(=O)[C@@H](NC(=O)[C@H](C)NC(=O)[C@H](CC(N)=O)NC(=O)[C@H](CC(=O)O)NC(=O)CNC(=O)[C@H](CCCCNC(=O)COCCOCCNC(=O)COCCOCCNC(=O)CC[C@H](NC(=O)CCCCCCCCCCCCCCCCC(=O)O)C(=O)O)NC(=O)[C@H](Cc1ccc(O)cc1)NC(=O)[C@@H](NC(=O)[C@@H]1CCCN1C(=O)[C@H](CCC(=O)O)NC(=O)[C@@H](N)CC(C)C)C(C)C)[C@@H](C)O)C(=O)N[C@@H](CC(N)=O)C(=O)N[C@@H](CCSC)C(=O)N[C@@H](CC(C)C)C(=O)N[C@H](C(=O)N[C@@H](CCCNC(=N)N)C(=O)N1CCC[C@H]1C(=O)N[C@@H](CCCNC(=N)N)C(=O)N[C@@H](Cc1ccc(O)cc1)C(N)=O)[C@@H](C)O [Compound BH] | 10
CC[C@H](C)[C@H](NC(=O)[C@H](Cc1ccc(O)cc1)NC(=O)[C@H](CCCNC(=N)N)NC(=O)[C@H](CCCNC(=N)N)NC(=O)[C@H](CC(C)C)NC(=O)[C@H](CC(=O)O)NC(=O)[C@H](C)NC(=O)[C@H](C)NC(=O)[C@H](CCCCNC(=O)COCCOCCNC(=O)COCCOCCNC(=O)CC[C@H](NC(=O)CCCCCCCCCCCCCCCCC(=O)O)C(=O)O)NC(=O)[C@H](CCC(N)=O)NC(=O)[C@H](C)NC(=O)[C@H](CCSC)NC(=O)[C@H](CCC(N)=O)NC(=O)[C@H](CCC(=O)O)NC(=O)[C@@H]1CCCN1C(=O)[C@@H](NC(=O)[C@H](C)NC(=O)[C@H](CC(N)=O)NC(=O)[C@H](CC(=O)O)NC(=O)CNC(=O)[C@@H]1CCCN1C(=O)[C@H](Cc1ccc(O)cc1)NC(=O)[C@@H](NC(=O)[C@@H]1CCCN1C(=O)[C@H](CCC(=O)O)NC(=O)[C@H](CC(C)C)NC(=O)[C@@H]1CCCN1)C(C)C)[C@@H](C)O)C(=O)N[C@@H](CC(N)=O)C(=O)N[C@@H](CCSC)C(=O)N[C@@H](CC(C)C)C(=O)N[C@H](C(=O)N[C@@H](CCCNC(=N)N)C(=O)N1CCC[C@H]1C(=O)N[C@@H](CCCNC(=N)N)C(=O)N[C@@H](Cc1ccc(O)cc1)C(N)=O)[C@@H](C)O [Compound N] (H-PLEPVYPGDNATPEQMAQK([AEEA-AEEA-γGlu-C18 diacid])AADLRRYINMLTRPRY-NH2; N-terminus and C-terminus assumed) | 44
CC[C@H](C)[C@H](NC(=O)[C@H](Cc1ccc(O)cc1)NC(=O)[C@H](CCCNC(=N)N)NC(=O)[C@H](CCCNC(=N)N)NC(=O)[C@H](CC(C)C)NC(=O)[C@H](CC(=O)O)NC(=O)[C@H](C)NC(=O)[C@H](C)NC(=O)[C@H](Cc1ccc(O)cc1)NC(=O)[C@H](CCC(N)=O)NC(=O)[C@H](C)NC(=O)[C@H](CCSC)NC(=O)[C@H](CCC(N)=O)NC(=O)[C@H](CCCCNC(=O)COCCOCCNC(=O)COCCOCCNC(=O)CC[C@H](NC(=O)CCCCCCCCCCCCCCCCC(=O)O)C(=O)O)NC(=O)[C@@H]1CCCN1C(=O)[C@@H](NC(=O)[C@H](C)NC(=O)[C@H](CC(N)=O)NC(=O)[C@H](CC(=O)O)NC(=O)CNC(=O)[C@@H]1CCCN1C(=O)[C@H](Cc1ccc(O)cc1)NC(=O)[C@@H](NC(=O)[C@@H]1CCCN1C(=O)[C@H](CCC(=O)O)NC(=O)[C@@H](N)CC(C)C)C(C)C)[C@@H](C)O)C(=O)N[C@@H](CC(N)=O)C(=O)N[C@@H](CCSC)C(=O)N[C@@H](CC(C)C)C(=O)N[C@H](C(=O)N[C@@H](CCCNC(=N)N)C(=O)N1CCC[C@H]1C(=O)N[C@@H](CCCNC(=N)N)C(=O)N[C@@H](Cc1ccc(O)cc1)C(N)=O)[C@@H](C)O [Compound BA] (H-LEPVYPGDNATPK([AEEA-AEEA-γGlu-C18 diacid])QMAQYAADLRRYINMLTRPRY-NH2; N-terminus and C-terminus assumed) | 24
CC[C@H](C)[C@H](NC(=O)[C@H](Cc1ccc(O)cc1)NC(=O)[C@H](CCCNC(=N)N)NC(=O)[C@H](CCCNC(=N)N)NC(=O)[C@H](CC(C)C)NC(=O)[C@H](CC(=O)O)NC(=O)[C@H](C)NC(=O)[C@H](C)NC(=O)[C@H](Cc1ccc(O)cc1)NC(=O)[C@H](CCC(N)=O)NC(=O)[C@H](C)NC(=O)[C@H](CCSC)NC(=O)[C@H](CCC(N)=O)NC(=O)[C@H](CCC(=O)O)NC(=O)[C@@H]1CCCN1C(=O)[C@@H](NC(=O)[C@H](C)NC(=O)[C@H](CC(N)=O)NC(=O)[C@H](CC(=O)O)NC(=O)CNC(=O)[C@@H]1CCCN1C(=O)[C@H](Cc1ccc(O)cc1)NC(=O)[C@@H](NC(=O)[C@@H]1CCCN1C(=O)[C@H](CCC(=O)O)NC(=O)[C@@H](N)CC(C)C)C(C)C)[C@@H](C)O)C(=O)N[C@@H](CCCCNC(=O)COCCOCCNC(=O)COCCOCCNC(=O)CC[C@H](NC(=O)CCCCCCCCCCCCCCCCC(=O)O)C(=O)O)C(=O)N[C@@H](CCSC)C(=O)N[C@@H](CC(C)C)C(=O)N[C@H](C(=O)N[C@@H](CCCNC(=N)N)C(=O)N1CCC[C@H]1C(=O)N[C@@H](CCCNC(=N)N)C(=O)N[C@@H](Cc1ccc(O)cc1)C(N)=O)[C@@H](C)O [Compound AM] (H-LEPVYPGDNATPEQMAQYAADLRRYIK([AEEA-AEEA-γGlu-C18 diacid])MLTRPRY-NH2; N-terminus and C-terminus assumed) | 70
CC[C@H](C)[C@H](NC(=O)[C@H](Cc1ccc(O)cc1)NC(=O)[C@H](CCCNC(=N)N)NC(=O)[C@H](CCCNC(=N)N)NC(=O)[C@H](CC(C)C)NC(=O)[C@H](CC(=O)O)NC(=O)[C@H](C)NC(=O)[C@H](C)NC(=O)[C@H](Cc1ccc(O)cc1)NC(=O)[C@H](CCC(N)=O)NC(=O)[C@H](C)NC(=O)[C@H](CCSC)NC(=O)[C@H](CCC(N)=O)NC(=O)[C@H](CCC(=O)O)NC(=O)[C@@H]1CCCN1C(=O)[C@@H](NC(=O)[C@H](C)NC(=O)[C@H](CC(N)=O)NC(=O)[C@H](CC(=O)O)NC(=O)CNC(=O)[C@@H]1CCCN1C(=O)[C@H](CCCCNC(=O)COCCOCCNC(=O)COCCOCCNC(=O)CC[C@H](NC(=O)CCCCCCCCCCCCCCCCC(=O)O)C(=O)O)NC(=O)[C@@H](NC(=O)[C@@H]1CCCN1C(=O)[C@H](CCC(=O)O)NC(=O)[C@@H](N)CC(C)C)C(C)C)[C@@H](C)O)C(=O)N[C@@H](CC(N)=O)C(=O)N[C@@H](CCSC)C(=O)N[C@@H](CC(C)C)C(=O)N[C@H](C(=O)N[C@@H](CCCNC(=N)N)C(=O)N1CCC[C@H]1C(=O)N[C@@H](CCCNC(=N)N)C(=O)N[C@@H](Cc1ccc(O)cc1)C(N)=O)[C@@H](C)O [Compound BI] | 9
CC[C@H](C)[C@H](NC(=O)[C@H](Cc1ccc(O)cc1)NC(=O)[C@H](CCCNC(=N)N)NC(=O)[C@H](CCCNC(=N)N)NC(=O)[C@H](CC(C)C)NC(=O)[C@H](CC(=O)O)NC(=O)[C@H](C)NC(=O)[C@H](C)NC(=O)[C@H](Cc1ccc(O)cc1)NC(=O)[C@H](CCC(N)=O)NC(=O)[C@H](C)NC(=O)[C@H](CCSC)NC(=O)[C@H](CCC(N)=O)NC(=O)[C@H](CCC(=O)O)NC(=O)[C@@H]1CCCN1C(=O)[C@@H](NC(=O)[C@H](C)NC(=O)[C@H](CC(N)=O)NC(=O)[C@H](CC(=O)O)NC(=O)CNC(=O)[C@@H]1CCCN1C(=O)[C@H](Cc1ccc(O)cc1)NC(=O)[C@@H](NC(=O)[C@@H]1CCCN1C(=O)[C@H](CCC(=O)O)NC(=O)[C@@H](N)CC(C)C)C(C)C)[C@@H](C)O)C(=O)N[C@@H](CC(N)=O)C(=O)N[C@@H](CCSC)C(=O)N[C@@H](CCCCNC(=O)COCCOCCNC(=O)COCCOCCNC(=O)CC[C@H](NC(=O)CCCCCCCCCCCCCCCCC(=O)O)C(=O)O)C(=O)N[C@H](C(=O)N[C@@H](CCCNC(=N)N)C(=O)N1CCC[C@H]1C(=O)N[C@@H](CCCNC(=N)N)C(=O)N[C@@H](Cc1ccc(O)cc1)C(N)=O)[C@@H](C)O [Compound AK] (H-LEPVYPGDNATPEQMAQYAADLRRYINMK([AEEA-AEEA-γGlu-C18 diacid])TRPRY-NH2; N-terminus and C-terminus assumed) | 80
CC[C@H](C)[C@H](NC(=O)[C@H](Cc1ccc(O)cc1)NC(=O)[C@H](CCCNC(=N)N)NC(=O)[C@H](CCCNC(=N)N)NC(=O)[C@H](CC(C)C)NC(=O)[C@H](CC(=O)O)NC(=O)[C@H](C)NC(=O)[C@H](C)NC(=O)[C@H](Cc1ccc(O)cc1)NC(=O)[C@H](CCC(N)=O)NC(=O)[C@H](C)NC(=O)[C@H](CCSC)NC(=O)[C@H](CCC(N)=O)NC(=O)[C@H](CCC(=O)O)NC(=O)[C@@H]1CCCN1C(=O)[C@@H](NC(=O)[C@H](C)NC(=O)[C@H](CC(N)=O)NC(=O)[C@H](CC(=O)O)NC(=O)CNC(=O)[C@@H]1CCCN1C(=O)[C@H](Cc1ccc(O)cc1)NC(=O)[C@@H](NC(=O)[C@@H]1CCCN1C(=O)[C@H](CCC(=O)O)NC(=O)[C@@H](N)CC(C)C)C(C)C)[C@@H](C)O)C(=O)N[C@@H](CC(N)=O)C(=O)N[C@@H](CCSC)C(=O)N[C@@H](CC(C)C)C(=O)N[C@H](C(=O)N[C@@H](CCCCNC(=O)COCCOCCNC(=O)COCCOCCNC(=O)CC[C@H](NC(=O)CCCCCCCCCCCCCCCCC(=O)O)C(=O)O)C(=O)N1CCC[C@H]1C(=O)N[C@@H](CCCNC(=N)N)C(=O)N[C@@H](Cc1ccc(O)cc1)C(N)=O)[C@@H](C)O [AI] (H-LEPVYPGDNATPEQMAQYAADLRRYINMLTK([AEEA-AEEA-γGlu-C18 diacid])PRY-NH2; N-terminus and C-terminus assumed) | 45
